Patent US20040229241A1, “Cloned mammalian polyamine oxidase” (priority 2001, published 2004)

Experiments:
[1] = target: T1, purified recombinant human PAOh1/SMO (Homo sapiens, UniProt Q9NWM0); assay: Oxidase activity of purified recombinant PAOh1/SMO, luminol chemiluminescence; format: biochemical; settings: for ability to serve as substrate (oxidation by purified PAOh1/SMO): 250 μM of compound; for inhibition of PAOh1/SMO activity, increasing concentrations: 250 μM spermine
T1 construct: A 1702 bp fragment of the PAOh1cDNA was produced by PCR; His tag (pET15b) (N); made in house; host or cells: Escherichia coli BL21(DE3)
Procedure: Expression and Purification of PAOh1/SMO. The pET15b/PAOh1/SMO plasmid was used to transform the BL21(DE3) strain of Escherichia coli (Novagen) and transformed cells were selected on LB agar with 50 μg/ml ampicillin. The expression of PAOh1/SMO protein was induced in LB medium by the addition of 1 mM IPTG for 3 h at 37 ° C. Cell lysates were prepared under denaturing conditions with 8M urea and PAOh1/SMO protein was purified from the lysate by Ni-NTA resin according to the manufacturer's protocol (Qiagen, Valencia, Calif.). The resulting denatured protein was renatured in buffers containing decreasing concentrations of urea (5M urea, 4 h; 2.5M urea, 4 h; 1M urea, 12 h; and 0M urea, 12 h) and 50 mM Tris-HCl, pH 7.5, 250 mM NaCl, 0.1 mM EDTA, 1 mM DTT, and 0.2 μM flavin adenine dinucleotide (FAD).
Determination of PAO enzyme activity. PAO activity of the purified PAOh1/SMO was assayed using a modi.cation of the chemiluminesence analysis reported by Fernandez et al. and Rogers, et al.. Briefly, luminol-dependent chemiluminescence was determined using a Monolight 3010 luminometer with two reagent injectors. Luminol was prepared as a 100 mM stock solution in DMSO and diluted to 100 μM with H2O, immediately prior to use. Purified PAOh1/SMO was assayed in a 100 mM glycine buffer, pH 8.0, 5 ηmol luminol, 20 μg horseradish peroxidase, and the polyamine substrate as indicated. All reagents with the exception of the polyamine substrate were combined and incubated for 2 min at 37 ° C., then the tube was transferred to the luminometer, substrate was added, and the resulting chemiluminescence was integrated over 20 s. The integral values are calibrated against standards containing known concentrations of H2O2 and the activities are expressed as pmols H2O2/mg protein/min. Where indicated, inhibitors were added at the specified concentrations prior to the addition of substrate. Km and Vmax values for the purified enzyme with the indicated substrate were estimated using Lineweaver-Burk transformation of the Michaelis-Menten kinetic equation.

PAOh1/SMO = PAOh1/SMO activity in lysates of NCI A549 cells after analogue treatment; format: cell-based, human; settings: for induction of PAOh1/SMO activity: NCI A549, 24 h exposure to 10 μM of each analogue; for substrate of the inducible PAOh1/SMO activity: lysates of NCI A549 treated with 10 μM BENSpm or CPENSpm 24 h, 250 μM substrate
Procedure: (§1) Cell Culture and Analysis of Growth Inhibition of Human Lung Cancer Cell Lines The non-small-cell cancer lines NCI A549 (adenocarcinoma), NCI H157 (squamous), NCI H727 (carcinoid), NCI H125 (adenocarcinoma) and U1752 (squamous), and the small-cell lung carcinoma lines NCI H82 and NCI H889 were cultured as we have previously described. Cells were treated for the times and with the concentrations of specific agents as indicated in the Results. For cell growth analysis in the presence of the PAOh1/SMO inhibitor MDL 72,527, the MTS dye reduction assay CellTiter 96 system from Promega was used according to the supplier's protocol. In these experiments, NCI A549 cells were seeded at 5×10^3 cells/well in a 96-well microtiter plate and treated for 96 h with 10 μM of the indicated analogue in the presence or absence of 250 μM MDL 72,527.
(§2) Total cellular RNA was extracted from the lung cancer cell lines using Trizol reagent (Invitrogen) according to the manufacturer's protocol. For Northern blotting, total RNA (20 lg) was separated on a denaturing 1.5% agarose gel containing 6% formaldehyde and transferred to Zetaprobe membrane (Bio-Rad). Random primer- labeled PAOh1 cDNA was used as probe to estimate PAOh1/SMO expression. Blots were stripped and reprobed with an 18S ribosomal cDNA to provide a loading control. Analysis of polyamine content, SSAT and PAOh1/SMO activity. Intracellular polyamine concentrations were determined using the precolumn dansylation labeling, reverse-phase high-pressure liquid chromatography method as described by Kabra et al. using 1,7-diaminoheptane as an internal standard. Polyamine concentrations are reported as nanomoles per milligram protein for each sample, where lysate protein content was measured by the method of Bradford. SSAT activity of cellular extracts was measured as previously described. […] The PAOh1/SMO assays were performed in the presence of 1.0 mM pargyline and 0.1 mM semicarbizide as inhibitors of monoamine oxidase (MAO) and diamine oxidase (DAO), respectively.

NCI A549 cells [2] = assay: Intracellular polyamine and analogue content of NCI A549 cells (HPLC); format: cell-based, human; settings: NCI A549, 10 μM, 24 h
From the text: as §2

SSAT = SSAT activity of NCI A549 cellular extracts; format: cell-based, human; settings: NCI A549, 10 μM, 24 h; untreated 5 ± 0.1
From the text: as §2

NCI A549 cells [3] = assay: MTS cell growth analysis of NCI A549 cells with or without MDL 72,527; format: cell-based, human; settings: NCI A549, 96 h, 10 μM analogue with 250 μM MDL 72,527
Procedure: as §1

PAOh4 = target: T2, PAOh4 (Homo sapiens, UniProt Q9NWM0); assay: Kinetics of TnT-produced PAOh4 isoenzyme; format: biochemical; settings: named compound as substrate
T2 construct: For PAO-isoform 4, the cDNA is 1825 bp long; the open reading frame encodes 532 amino acids; made in house; host or cells: Wheat Germ Extract-TnT coupled system (Promega), template pPAOh4 (pcDNA3.1), cDNA from HEK-293 mRNA
Procedure: For PAO splice variant protein analysis, each cDNA construct, as well as the pcDNA3.1 empty vector, was linearized using NdeI. In vitro transcription and translation was subsequently performed using the Wheat Germ Extract-TnT coupled system from Promega (Madison, Wis., U.S.A.) according to the manufacturer's protocol. Reactions were performed in parallel, with one aliquot containing [^35S]methionine in the amino acid mixture for subsequent separation and quantification by SDS-PAGE. […] After drying, bands were visualized and quantified using phosphorimage analysis with Image Quant software from Molecular Dynamics (Sunnyvale, Calif., U.S.A.).
TnT products from the reactions using unlabelled substrates were used for PAO enzyme analysis by the method of Suzuki et al. Specifically, 10 μl of the TnT reaction mixture was used for each 600 μl of PAO assay sample (in duplicate, and in the presence of monoamine and diamine oxidase inhibitors, as previously described). Background oxidase activity in the Wheat Germ Extract-TnT reactions was determined for each substrate using the empty pcDNA3.1 vector. These values (always<0.05 pmol/min) were subtracted from the oxidase activity measured in TnT lysates produced from vectors containing the individual splice variants. To ensure linearity of the reaction (thereby determining the optimal incubation time after substrate addition), time courses were performed for each potential isoenzyme in the presence of 1 mM Spm (Sigma, St. Louis, Mo., U.S.A.).
Apparent kinetics were examined for each isoenzyme using TnT reaction products as described above with increasing concentrations of Spm, Spd (Sigma) or N^1-acetylspermine (N^1-AcSpm; Fluka). Apparent Km and Vmax values were determined using the Lineweaver-Burk transformation of the Michaelis-Menten equation. Values were adjusted for TnT reaction efficiency by SDS-PAGE quantfication of a [^35S]methionine-labelled aliquot of the TnT reaction mixture normalized for methionine content.

[4] = named compound as substrate, Lineweaver-Burk

T2 sequence (Q9NWM0 1-532 isoform Q9NWM0-4): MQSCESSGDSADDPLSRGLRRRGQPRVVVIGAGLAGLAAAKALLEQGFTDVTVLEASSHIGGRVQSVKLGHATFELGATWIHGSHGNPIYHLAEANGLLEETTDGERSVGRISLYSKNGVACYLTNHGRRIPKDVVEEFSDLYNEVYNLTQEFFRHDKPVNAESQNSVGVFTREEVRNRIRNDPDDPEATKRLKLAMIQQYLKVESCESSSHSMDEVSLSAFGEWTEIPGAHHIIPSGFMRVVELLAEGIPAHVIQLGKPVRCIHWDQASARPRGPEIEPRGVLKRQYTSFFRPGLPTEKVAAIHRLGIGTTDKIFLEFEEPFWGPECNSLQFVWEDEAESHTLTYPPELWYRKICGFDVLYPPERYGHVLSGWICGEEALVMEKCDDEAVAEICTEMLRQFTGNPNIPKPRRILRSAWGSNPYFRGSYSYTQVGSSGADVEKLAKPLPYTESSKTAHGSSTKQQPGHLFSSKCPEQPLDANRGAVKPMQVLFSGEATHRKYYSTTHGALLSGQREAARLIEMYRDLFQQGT
T1 sequence (Q9NWM0 whole entry, the tested form may be a part): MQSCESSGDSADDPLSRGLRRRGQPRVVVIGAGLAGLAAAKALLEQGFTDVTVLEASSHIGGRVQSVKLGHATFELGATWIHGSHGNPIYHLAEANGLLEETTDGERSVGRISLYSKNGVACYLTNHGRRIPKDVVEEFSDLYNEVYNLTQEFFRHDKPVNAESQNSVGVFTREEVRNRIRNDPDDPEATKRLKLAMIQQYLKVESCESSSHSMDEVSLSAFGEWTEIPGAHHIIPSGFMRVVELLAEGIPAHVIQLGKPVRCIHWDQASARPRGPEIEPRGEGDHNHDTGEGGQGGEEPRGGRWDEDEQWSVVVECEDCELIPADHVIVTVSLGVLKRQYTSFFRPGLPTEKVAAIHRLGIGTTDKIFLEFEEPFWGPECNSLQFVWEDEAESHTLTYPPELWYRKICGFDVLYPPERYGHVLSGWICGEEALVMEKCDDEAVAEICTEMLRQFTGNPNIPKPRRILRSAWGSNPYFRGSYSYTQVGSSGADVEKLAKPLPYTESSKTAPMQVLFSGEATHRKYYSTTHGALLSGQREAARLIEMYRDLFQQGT

CCNCCCNCCCNCCCNCC1CCCCCC1 [CHENSpm, N^1-ethyl-N^11-(cycloheptyl) methyl-4,8,diazaundecane] was tested, and the “ability to serve as substrate (oxidation by purified PAOh1/SMO)” value (shortened to “ability … (oxidation by purified PAOh1/SMO)”) [1] was “none of the analogues examined were found to be oxidized”, the “inhibition of PAOh1/SMO activity, increasing concentrations” value [1] was “not found to profoundly inhibit” and the “inhibition of PAOh1/SMO activity” value ([1]; at 10 μM) was less than 20%. The “induction of PAOh1/SMO activity” value (PAOh1/SMO) was “significant induction”.
With CCNCCCNCCCNCCCNCC1CC1 [CPENSpm, N^1-ethyl-N^11-(cyclopropyl) methyl-4,8,diazaundecane] the “Polyamine: Putrescine” value (NCI A549 cells [2]; untreated 2.1 ± 0.7) was less than 0.05 nmol/mg protein, the “Polyamine: Spermine” value (NCI A549 cells [2]; untreated 9.9 ± 1.2) was 2.4 ± 0.4 nmol/mg protein and the “Polyamine: Spermidine” value (NCI A549 cells [2]; untreated 26.9 ± 1.2) was 5.5 ± 0.2 nmol/mg protein. For the same compound, the SSAT activity (SSAT) was 1190 ± 287.9 pmol N^1-acetylspermidine/mg p, the “sensitivity of cell growth to analogue in the presence of the PAOh1/SMO inhibitor” value (NCI A549 cells [3]) was “clear decrease in sensitivity” and the “ability … (oxidation by purified PAOh1/SMO)” value [1] was “none of the analogues examined were found to be oxidized”. For the same compound, the PAOh1/SMO activity (PAOh1/SMO; NCI A549, 10 μM, 24 h, untreated 6,390 ± 2,070) was 14,300 ± 3,700 pmol H2O2/mg/h, the “induction of PAOh1/SMO activity” value (PAOh1/SMO) was “significant induction” and the “dose-dependence of PAOh1/SMO activity” value (PAOh1/SMO; NCI A549, increasing concentrations, 24 h) was “continued to increase at concentrations up to 50 μM”.
In the case of CCNCCCNCCCNCCCNC[C@@H](C)CC [IPENSpm, (S)-N1-(2-methyl-1-butyl)-N^11-ethyl-4,8,diazaundecane], the “ability … (oxidation by purified PAOh1/SMO)” value [1] is reported as “none of the analogues examined were found to be oxidized” and the “induction of PAOh1/SMO activity” value (PAOh1/SMO) is reported as “significant induction”.
For CC(=O)NCCCNCCCCNCCCN [N^1-acetylspermine], the “Km of PAOh4” value (PAOh4) was “nanomolar range”, the “ability … (oxidation by purified PAOh1/SMO)” value [1] was “less efficient” and the Km [1, 4] was 51 µM. For the same compound, the “Vmax of purified PAOh1/SMO” value [1, 4] was 0.251 μmol/mg protein/min and the “substrate of the inducible PAOh1/SMO activity” value (PAOh1/SMO) was “not significantly active”.
With CCNCCCCNCCCCNCCCCNCCCCNC/C=C/CNCCCCNCCCCNCCCCNCCCCNCC [SL-11144] the “potency relative to MDL 72,527” value [1] was 100 times, the “ability … (oxidation by purified PAOh1/SMO)” value [1] was “none of the analogues examined were found to be oxidized” and the “inhibition of PAOh1/SMO activity, increasing concentrations” value [1] was “potent inhibitors”. The “induction of PAOh1/SMO activity” value (PAOh1/SMO) was “did not induce”.
For CCNCCCCNCCCCNCCCCNCCCCNC/C=C\CNCCCCNCCCCNCCCCNCCCCNCC [SL-11150], the “potency relative to MDL 72,527” value [1] was 100 times, the “ability … (oxidation by purified PAOh1/SMO)” value [1] was “none of the analogues examined were found to be oxidized” and the “inhibition of PAOh1/SMO activity, increasing concentrations” value [1] was “potent inhibitors”. The “induction of PAOh1/SMO activity” value (PAOh1/SMO) was “did not induce”.
In the case of NCCCCNCCCN [spermidine], the “Km of PAOh4” value (PAOh4) is reported as “nanomolar range”, the “ability … (oxidation by purified PAOh1/SMO)” value [1] is reported as “No PAOh1/SMO activity was observed” and the “substrate of the inducible PAOh1/SMO activity” value (PAOh1/SMO) is reported as “not significantly active”.
With NCCCNCCCCNCCCN [spermine] the “Km of PAOh4” value (PAOh4) was “nanomolar range”, the “ability … (oxidation by purified PAOh1/SMO)” value [1] was “efficiently oxidize” and the “substrate of the inducible PAOh1/SMO activity” value (PAOh1/SMO) was “only spermine was a substrate”.
